Measurements published in US20100279941A1, “CD36 MODULATION AND USES THEREOF” (priority 2009, published 2010).

What was measured:
Assay type in all cases: in vivo
C57BL/6 mice [1] = assay: Cardiac troponin I (cTnI) in plasma, ELISA; details: 48 hours post-ischemia; 2 weeks 289 nmol/kg; compared to vehicle
Protocol: (§1) C57BU6 mice were bred in house. Male mice, aged 23 (±1) weeks, were used for experiments. They were fed standard chow (#5075, Charles Rivers, Saint-Constant, Québec, Canada) and water ad libitum, and housed singly during treatment periods (2 weeks). Daily pharmacological treatments with 300 μg/kg (289 nmol/kg) of EP 80317 or 289 nmol/kg of CP-3(IV), 289 nmol/kg of CP-AP-4 or vehicle (0.9% NaCl) were done by subcutaneous (s.c.) injections.
Experimental model of IHD: Transient left coronary artery ligation in vivo. Mice were subjected to a transient LCAL surgery as described before, with minor modifications [Tarnayski et al., 2004]. Mice were injected i.p. with buprenorphine (0.05 mg/kg) and placed in an induction chamber with inhalation anesthesia comprised of 3% isoflurane mixed with 100% oxygen. Mice were intubated with a blunt ended 20-gauge catheter into the trachea via the mouth and mechanically ventilated at a tidal volume of 7 ml/kg at 130 respirations/min with a MiniVent™ mouse ventilator (model 845, Harvard Apparatus, Saint-Laurent, QC, Canada). Anesthesia was maintained with 1.5-2% isoflurane and the animals were kept warm using electrical heating pads during the surgical procedure. The chest was opened by a horizontal incision through the skin and muscle layers at the third intercostal space exposing the left side of the heart. […] Visual blanching distal to the coronary occlusion confirmed myocardial ischaemia. Lidocaine (6 mg/kg) was administered i.p. just following occlusion and prior to reperfusion. After 30 minutes, the PE10 tubing was removed allowing reperfusion. The lungs were reinflated and the chest wound closed layer by layer before extubation. […] Hearts were immediately frozen at −80° C. unless otherwise stated.
Cardiac troponin I (cTnI) concentrations in plasma. cTnI plasma levels were assayed using the High Sensitivity Mouse Cardiac Troponin-I ELISA Kit (Life Diagnostics, Inc., West Chester, Pa., Cat. No. 2010-1-HSP), according to the manufacturer's instructions.

C57BL/6 mice [2] = assay: Blood lactate after transient ischemia; details: 6-hour reperfusion; 2 weeks 289 nmol/kg; P<0.05 compared to vehicle
Protocol: as §1
(§2) Experimental model of IHD: Transient left coronary artery ligation in vivo. Mice were subjected to a transient LCAL surgery as described before, with minor modifications [Tarnayski et al., 2004]. Mice were injected i.p. with buprenorphine (0.05 mg/kg) and placed in an induction chamber with inhalation anesthesia comprised of 3% isoflurane mixed with 100% oxygen. Mice were intubated with a blunt ended 20-gauge catheter into the trachea via the mouth and mechanically ventilated at a tidal volume of 7 ml/kg at 130 respirations/min with a MiniVent™ mouse ventilator (model 845, Harvard Apparatus, Saint-Laurent, QC, Canada). Anesthesia was maintained with 1.5-2% isoflurane and the animals were kept warm using electrical heating pads during the surgical procedure. The chest was opened by a horizontal incision through the skin and muscle layers at the third intercostal space exposing the left side of the heart. […] Visual blanching distal to the coronary occlusion confirmed myocardial ischaemia. Lidocaine (6 mg/kg) was administered i.p. just following occlusion and prior to reperfusion. After 30 minutes, the PE10 tubing was removed allowing reperfusion. The lungs were reinflated and the chest wound closed layer by layer before extubation. At 6 hours following reperfusion, mice were anesthetized (isoflurane), a blood sample withdrawn, and the heart arrested in diastole by an intravenous injection of 1 M KCl (0.5 mL). Hearts were immediately frozen at −80° C. unless otherwise stated.
Blood lactate. Blood lactate was determined using the Lactate Pro Analyser (FaCT Canada Consulting Ltd, Quesnel, BC, Canada), according to the manufacturer's instructions.

[3] = tested on: CD36^+/+ and CD36^−/− mice; assay: Myocardial NEFA uptake by μPET with [18F]-FTHA; details: 6 hours reperfusion, in words
Protocol: as §2
Imaging experiments. Imaging experiments were performed with the avalanche photodiode-based small animal PET scanner (μPET) [Lecomte et al., 1996]. […]
(§3) Imaging Data Analysis. For [^11C]-acetate images, dynamic series of 25 frames each were sorted out whereas 27 frames were used for ^18FDG and ^18FTHA imaging, and were reconstructed and analyzed using multicompartmental analysis [Menard et al., 2009] or the Patlak method for FTHA [Patlak and Blasberg, 1985]. […]
Plasma and tissue assays. Plasma insulin, triglyceride (TG) and NEFA levels were measured as previously described [Menard et al., 2009]. […]

[4] = tested on: CD36^+/+ and CD36^−/− mice; assay: Myocardial oxidative metabolism by μPET with [11C]-acetate; details: in words
Protocol: Experimental model of IHD: Transient left coronary artery ligation in vivo. Mice were subjected to a transient LCAL surgery as described before, with minor modifications [Tarnayski et al., 2004]. Mice were injected i.p. with buprenorphine (0.05 mg/kg) and placed in an induction chamber with inhalation anesthesia comprised of 3% isoflurane mixed with 100% oxygen. Mice were intubated with a blunt ended 20-gauge catheter into the trachea via the mouth and mechanically ventilated at a tidal volume of 7 ml/kg at 130 respirations/min with a MiniVent™ mouse ventilator (model 845, Harvard Apparatus, Saint-Laurent, QC, Canada). Anesthesia was maintained with 1.5-2% isoflurane and the animals were kept warm using electrical heating pads during the surgical procedure. The chest was opened by a horizontal incision through the skin and muscle layers at the third intercostal space exposing the left side of the heart. […] Visual blanching distal to the coronary occlusion confirmed myocardial ischaemia. Lidocaine (6 mg/kg) was administered i.p. just following occlusion and prior to reperfusion. […]
as §3

Substance: HAIC-2MeDTrp-DLys-Trp-DPhe-Lys-NH2 [EP 80317]
- reduction of cardiac troponin I (cTnI) levels in plasma (C57BL/6 mice [1]): 60%
- reduction of lactate concentration in blood (C57BL/6 mice [2]): 34%
- total plasma NEFA uptake (Km) ([3]; CD36^+/+ mice): reduced
- mean fractional uptake rate (Ki) of plasma NEFA ([3]; CD36^+/+ or CD36^−/− mice): not affected
- net fatty acid uptake (Km) ([3]; CD36^−/− mice): not modulated
- myocardial oxidative metabolism (k2) ([4]; CD36^+/+ mice pre-treated): reduced
- myocardial oxidative metabolism (k2) ([4]; CD36^−/− mice): unaffected
